Laboratory results: patent US5192764A, “Pyrazinone N-oxide nucleosides and analogs thereof” (priority 1991, dated 1993)

What was measured:
vaccinia viruses = conditions: literature; comparable to 5-iodo-2'-deoxyuridine; cited from earlier work
herpes simplex = conditions: literature; comparable to 5-iodo-2'-deoxyuridine; cited from earlier work
HSV-1 (KOS strain) [1] = assay: Plaque reduction method, anti-HSV-1 (KOS strain); format: cell-based; conditions: for activity at 1 µM: Human alphaherpesvirus 1, 1 uM; for activity at 1 µM / activity at 5 µM / activity at 25 µM / activity at 100 µM: read-out: Plaque Forming Units, % of Control; for activity at 5 µM: Human alphaherpesvirus 1, 5 uM; for activity at 25 µM: Human alphaherpesvirus 1, 25 uM; for activity at 100 µM: Human alphaherpesvirus 1, 100 uM; for antiherpes activity (in words): data of Table 1
Procedure: Antiviral (HSV) activities of 1-(2'-Deoxy-B-D-ribofuranosyl)-2-pyrazinone-4-N-oxide (A in table 1) and the corresponding 1-(2'-Deoxy-B-D-ribofuranosyl)-5-methyl-2-pyrazinone-N-oxide and 1-(2,-Deoxy-B-D-ribofuranosyl)-5-ethyl-2-pyrazinone-4-N-oxide (respectively, B and C of table 1) were determined according to the procedure described in Gao, et al., Antimic. Agents Chem., 34, 808 (1990), using the plaque reduction method. Table 1 indicates the relative antiviral activities of the three derivatives against HSV-1 (KOS strain).

leukemic L1210 cells = conditions: literature; cited from earlier work
bacterial cells = conditions: literature; cited from earlier work
HSV-1 KOS (PMEAr) = assay: Plaque Reduction Method against HSV-1 KOS 9-(2-phosphonylmethoxyethyl)-adenine resistant strain; format: cell-based; conditions: Human alphaherpesvirus 1, read-out: ID50
Procedure: (§1) Using the Plaque Reduction Method, activity against HSV-1 KOS Phosphono formate resistant (PFAr) and KOS 9-(2-Phosphonylmethoxyethyl)-adenine resistant (PMEAr) strains was assessed.

HSV-2 (333) = assay: Virus Yield method against HSV-2 (333); format: cell-based; conditions: Human alphaherpesvirus 2, read-out: ID90 (the source's name)
leukemia L1210 cells = assay: Cytotoxicity against leukemia L1210 cells; format: cell-based; conditions: up to a concentration of 2×10^-3
Procedure: (§2) Compounds B and C were tested for cytotoxicity against leukemia L1210 cells up to a concentration of 2×10^-3 according to the method described in Bobek and Bloch, J. Med. Chem., 20, 458, 1977. In addition, these compounds were tested for cytotoxicity against a human T-cell lymophoblast cell line (CEM) according to the method of Vazquez-Padua, et al., Cancer Comm., 2, 55-62 (1990) with the exception that the cell line was different, to assay the cells, the cells were counted with a cell counter and the cells were incubated for 4 days instead of for 3 days.

HSV-1 KOS (PFAr) = assay: Plaque Reduction Method against HSV-1 KOS phosphonoformate resistant strain; format: cell-based; conditions: Human alphaherpesvirus 1, read-out: ID50
Procedure: as §1

HSV-1 (KOS strain) [2] = assay: Virus Yield Method against HSV-1 (KOS strain); format: cell-based; conditions: for IC90: Human alphaherpesvirus 1, read-out: ID90 (the source's name)
Varicella Zoster (VZV) = assay: Anti-VZV activity (Virus Yield) in HLF human cell line; format: cell-based
Text: As tested, using the above-described methodology, luM of Compound C inhibited 90% of the Virus Yield.

EBV = assay: Anti-EBV activity, EBV DNA in high EBV producer cell line; format: cell-based; conditions: EBV DNA in Hl subclone of P3HR-1 cells, EBV DNA probe BAMH IM
Procedure: In particular, when EBV DNA was assessed in a high EBV producer cell line (Hl, which is a subclone of P3HR-1 cells of Burkitt's lymphoma cell line), Compound C evidenced anti-EBV activity. The methodology employed in the EBV assay is similar to the method of Foster, et al., Jour. Biol. Chem., 266, 238, (1991), except that the EBV DNA was assessed with an EBV DNA probe BAMH IM.

thymidine phosphorylase = assay: Breakdown by human liver thymidine phosphorylase; format: biochemical; conditions: enzyme from human liver
Text: Compound C was also examined against thymidine phosphorylase obtained from the human liver using standard methodology.

[3] = system: human T-cell lymophoblast cell line (CEM); assay: Cytotoxicity against human T-cell lymphoblast cell line (CEM); format: cell-based; conditions: CEM cells, 4 days incubation
Procedure: as §2

[4] = as above; format: cell-based; conditions: human; CEM cells, 4 days incubation; read-out: cytotoxicity ID50
Procedure: as §2

Structure (SMILES) | activity at 1 µM (HSV-1 (KOS strain) [1]) [%] | activity at 5 µM (HSV-1 (KOS strain) [1]) [%] | activity at 25 µM (HSV-1 (KOS strain) [1]) [%] | activity at 100 µM (HSV-1 (KOS strain) [1]) [%] | antiherpes activity (in words) (HSV-1 (KOS strain) [1]) | activity against leukemic L1210 cells (leukemic L1210 cells) | antibacterial / antimicrobial activity (bacterial cells) | IC50 (HSV-1 KOS (PMEAr)) [nM] | IC90 (HSV-2 (333)) [nM] | cytotoxicity (leukemia L1210 cells) | IC50 (HSV-1 KOS (PFAr)) [nM] | IC90 (HSV-1 (KOS strain) [2]) [nM] | also measured
CCc1cn([C@H]2C[C@H](O)[C@@H](CO)O2)c(=O)[nH]c1=O [5-ethyl-2'-deoxyuridine] | – | – | – | – | – | – | – | – | – | – | – | – | activity against vaccinia viruses (vaccinia viruses): significant activity; activity against herpes simplex (herpes simplex): significant activity
O=c1c[n+]([O-])ccn1[C@H]1C[C@H](O)[C@@H](CO)O1 [A, 1-(2'-Deoxy-B-D-ribofuranosyl)-2-pyrazinone-4-N-oxide] | 100 | 100 | 100 | 100 | inactive | essentially inactive | significantly more effective as an antimicrobial agent than the riboside | – | – | – | – | – | –
Cc1cn([C@H]2C[C@H](O)[C@@H](CO)O2)c(=O)c[n+]1[O-] [Compound B, 1-(2'-Deoxy-B-D-ribofuranosyl)-5-methyl-2-pyrazinone-N-oxide] | 100 | 39 | 0.91 | 0.09 | significant antiherpes activity | significantly more active | only marginally active | 600 | 3000 | significant cytoxtoxicity | 1400 | 1800 | –
CCc1cn([C@H]2C[C@H](O)[C@@H](CO)O2)c(=O)c[n+]1[O-] [Compound C, 1-(2-Deoxy-B-D-ribofuranosyl)-5-ethyl-2-pyrazinone-4-N-oxide] | 100 | 55 | 4.5 | 0.3 | significant antiherpes activity | – | – | 1000 | 2000 | virtually no cytotoxicity | 3400 | 2800 | activity against VZV (in words) (Varicella Zoster (VZV)): significant activity; inhibition of Virus Yield (Varicella Zoster (VZV); luM): 90%; EC50 (HSV-1 (KOS strain) [1]; Human alphaherpesvirus 1, plaque reduction): 6000 nM; anti-EBV activity (EBV): significant anti-EBV activity; substrate of thymidine phosphorylase (thymidine phosphorylase): substrate of the enzyme; rate of breakdown by the enzyme relative to thymidine (thymidine phosphorylase; compared with thymidine): much less than the rate or breakdown of thymidine; cytotoxicity relative to Compound B [3]: significantly less toxic than Compound B; CC50 at 96 h [4]: > 400000 nM
Nc1nc2c(ncn2COCCO)c(=O)[nH]1 [acyclovir, reference compound] | – | – | – | – | – | – | – | – | – | – | 6200 | 14000 | ID90 of ACV relative to Compound C (fold higher) (HSV-1 (KOS strain) [2]): approximately 7 fold
O=c1c[n+]([O-])ccn1[C@@H]1O[C@H](CO)[C@@H](O)[C@H]1O [riboside of 2-pyrazinone-4-N-oxide, reference compound] | – | – | – | – | – | – | antibacterial activity | – | – | – | – | – | –
